Article PMC11793850, “Insights into Molecular Interactions and Biological Effect of Natural Stilbenoids at the TRPA1 Ion Channel” (Chemmedchem, 2024)

Key:
rTRPA1 = molecular target: T1, rTRPA1 (Rattus norvegicus, UniProt Q6RI86); assay: FLIPR calcium assay in HEK293 cells with inducible rTRPA1 ([…] of maximal AITC response at […]; desensitization to AITC); format: cell-based
T1 construct: gene Trpa1

hTRPA1 = molecular target: T2, hTRPA1 (Homo sapiens, UniProt O75762); assay: FLIPR calcium assay (agonism) in HEK293 cells with inducible hTRPA1; non-expressing HEK293 control; format: cell-based
T2 construct: gene TRPA1
T2 sequence (O75762 whole entry): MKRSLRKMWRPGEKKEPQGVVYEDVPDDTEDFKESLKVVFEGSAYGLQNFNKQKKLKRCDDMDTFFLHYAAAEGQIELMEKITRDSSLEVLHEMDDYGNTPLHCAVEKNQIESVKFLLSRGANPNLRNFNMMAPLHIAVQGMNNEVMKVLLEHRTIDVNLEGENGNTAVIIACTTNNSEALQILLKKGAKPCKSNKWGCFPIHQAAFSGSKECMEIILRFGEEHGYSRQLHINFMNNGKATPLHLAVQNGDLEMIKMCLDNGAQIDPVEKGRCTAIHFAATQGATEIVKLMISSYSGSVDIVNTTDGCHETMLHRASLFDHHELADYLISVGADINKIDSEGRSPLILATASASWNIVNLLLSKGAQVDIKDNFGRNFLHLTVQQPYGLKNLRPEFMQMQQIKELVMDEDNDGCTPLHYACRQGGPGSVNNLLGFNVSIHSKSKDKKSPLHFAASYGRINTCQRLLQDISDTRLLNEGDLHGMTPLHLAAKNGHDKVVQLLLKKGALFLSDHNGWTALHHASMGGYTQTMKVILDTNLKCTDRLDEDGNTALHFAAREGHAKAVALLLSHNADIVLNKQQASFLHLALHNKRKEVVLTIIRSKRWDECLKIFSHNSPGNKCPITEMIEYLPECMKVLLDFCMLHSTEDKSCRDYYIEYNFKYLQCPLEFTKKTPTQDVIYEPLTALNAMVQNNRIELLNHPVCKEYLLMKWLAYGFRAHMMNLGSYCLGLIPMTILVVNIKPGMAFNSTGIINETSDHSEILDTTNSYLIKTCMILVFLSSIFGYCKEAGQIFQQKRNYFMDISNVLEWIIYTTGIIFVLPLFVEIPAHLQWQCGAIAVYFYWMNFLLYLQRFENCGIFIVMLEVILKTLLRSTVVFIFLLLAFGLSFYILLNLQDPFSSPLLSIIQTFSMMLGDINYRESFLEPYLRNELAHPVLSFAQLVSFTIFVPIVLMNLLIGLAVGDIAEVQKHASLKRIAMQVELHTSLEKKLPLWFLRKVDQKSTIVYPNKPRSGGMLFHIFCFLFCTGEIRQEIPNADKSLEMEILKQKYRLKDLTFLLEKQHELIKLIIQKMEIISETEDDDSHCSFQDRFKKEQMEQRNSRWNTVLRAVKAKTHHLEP

T1 sequence (Q6RI86 whole entry): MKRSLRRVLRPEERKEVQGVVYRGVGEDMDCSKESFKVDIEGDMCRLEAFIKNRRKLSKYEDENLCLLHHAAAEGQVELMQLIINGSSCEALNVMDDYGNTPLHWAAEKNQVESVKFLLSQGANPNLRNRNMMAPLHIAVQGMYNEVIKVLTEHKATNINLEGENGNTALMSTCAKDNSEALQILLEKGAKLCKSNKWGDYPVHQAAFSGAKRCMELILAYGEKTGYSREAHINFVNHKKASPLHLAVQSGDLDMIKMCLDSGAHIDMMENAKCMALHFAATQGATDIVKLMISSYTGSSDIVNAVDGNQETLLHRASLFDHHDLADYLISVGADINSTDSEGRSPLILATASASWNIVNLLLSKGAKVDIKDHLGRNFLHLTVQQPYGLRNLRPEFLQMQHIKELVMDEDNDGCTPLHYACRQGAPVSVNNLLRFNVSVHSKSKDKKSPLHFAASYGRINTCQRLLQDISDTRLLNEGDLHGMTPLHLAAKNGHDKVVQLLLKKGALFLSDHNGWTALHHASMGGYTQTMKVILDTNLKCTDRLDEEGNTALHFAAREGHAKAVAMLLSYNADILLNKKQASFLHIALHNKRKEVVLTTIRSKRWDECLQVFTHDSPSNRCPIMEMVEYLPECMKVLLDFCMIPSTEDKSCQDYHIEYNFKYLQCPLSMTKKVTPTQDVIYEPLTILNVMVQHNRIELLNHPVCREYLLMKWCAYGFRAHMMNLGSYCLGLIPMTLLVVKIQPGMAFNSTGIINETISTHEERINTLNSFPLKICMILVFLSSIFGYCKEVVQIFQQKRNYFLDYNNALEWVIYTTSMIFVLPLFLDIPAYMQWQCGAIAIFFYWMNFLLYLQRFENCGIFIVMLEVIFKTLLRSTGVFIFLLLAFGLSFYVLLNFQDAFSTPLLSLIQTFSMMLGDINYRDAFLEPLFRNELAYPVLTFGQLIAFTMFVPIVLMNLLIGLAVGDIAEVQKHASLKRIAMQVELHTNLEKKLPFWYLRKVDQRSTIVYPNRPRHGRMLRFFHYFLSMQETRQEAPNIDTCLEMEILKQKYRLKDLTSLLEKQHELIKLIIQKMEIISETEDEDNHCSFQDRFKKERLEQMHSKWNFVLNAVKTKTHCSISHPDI

| Compound | Emax at 100 µM (rTRPA1) | EC50 (hTRPA1) |
| --- | --- | --- |
| Oc1ccc(/C=C/c2cc(O)cc(O)c2)cc1 [Resveratrol] | 35% | 3.2 ± 0.2 µM |
| COc1cc(O)cc(/C=C/c2ccccc2)c1 [pinosylvin monomethyl ether] |  | 11.2 ± 0.8 µM |
| Oc1cc(O)cc(/C=C/c2ccccc2)c1 [Pinosylvin] |  | 12 ± 1.1 µM |
